Measured values published in PMC3578785, “Improved BM212 MmpL3 Inhibitor Analogue Shows Efficacy in Acute Murine Model of Tuberculosis Infection” (PLoS ONE, 2013).
≈ marks a conversion by molar mass, not a printed value. Where two headings read alike, the source gives them in different places.

Assays:
in vitro [1] = type: in vitro ADME, human; settings: pH 7.4; for Cli human: 0.5 µM; for half-life: human microsomes, read-out: t1/2 in human microsomes
Experimental: (§1) Protocol S6. Microsomal fraction stability experimental procedure.
(§2) Pooled mouse and human liver microsomes are purchased from Xenotech. Microsomes (final protein concentration 0.5 mg/mL, MgCl2 (final concentration = 5 mM) and test compound (final substrate concentration = 0.5 µM; final DMSO concentration = 0.5%) in 0.1M phosphate buffer pH 7.4 were pre-incubated at 37°C prior to the addition of NADPH (final concentration = 1 mM) to initiate the reaction. The final incubation volume was 600 µL. A control incubation was included for each compound tested where 0.1 M phosphate buffer pH 7.4 is added instead of NADPH (minus NADPH). One control compound was included with each species. All incubations were performed singularly for each test compound. Each compound was incubated for 30 minutes and samples (90 µL) of incubate were taken at 0, 5, 15, 20 and 30 min. The control (minus NADPH) was sampled at 30 min only. The reactions were stopped by the addition of sample to 200 µL Acetonitrile:Methanol 3:1 containing internal standard. The terminated samples were centrifuged at 2.500 rpm for 20 min at 4°C to precipitate the protein.
(§3) Quantitative Analysis: following protein precipitation, the samples were analyzed using specific […]
(§4) Data Analysis: from a plot of ln peak area ratio (compound peak area/internal standard peak area) against time, the gradient of the line was determined. Subsequently, half-life and intrinsic clearance were calculated using the equations below:
(§5) Elimination rate constant (k) = (- gradient)
(§6) Half life (t1/2) (min) = […]
(§7) Intrinsic Clearance (CLint) (mL/min/g protein) = […] where V=Incubation volume mL/g microsomal protein.

M. tuberculosis H37Rv = assay: microbe, parasite or virus in culture; type: cell-based; settings: Mycobacterium tuberculosis, aerobic conditions
[2] = target: human serum albumin (HSA) (Homo sapiens, UniProt P02768); type: in vitro ADME; settings: human, pH 7.4
Sequence of human serum albumin (HSA) (P02768 25-609): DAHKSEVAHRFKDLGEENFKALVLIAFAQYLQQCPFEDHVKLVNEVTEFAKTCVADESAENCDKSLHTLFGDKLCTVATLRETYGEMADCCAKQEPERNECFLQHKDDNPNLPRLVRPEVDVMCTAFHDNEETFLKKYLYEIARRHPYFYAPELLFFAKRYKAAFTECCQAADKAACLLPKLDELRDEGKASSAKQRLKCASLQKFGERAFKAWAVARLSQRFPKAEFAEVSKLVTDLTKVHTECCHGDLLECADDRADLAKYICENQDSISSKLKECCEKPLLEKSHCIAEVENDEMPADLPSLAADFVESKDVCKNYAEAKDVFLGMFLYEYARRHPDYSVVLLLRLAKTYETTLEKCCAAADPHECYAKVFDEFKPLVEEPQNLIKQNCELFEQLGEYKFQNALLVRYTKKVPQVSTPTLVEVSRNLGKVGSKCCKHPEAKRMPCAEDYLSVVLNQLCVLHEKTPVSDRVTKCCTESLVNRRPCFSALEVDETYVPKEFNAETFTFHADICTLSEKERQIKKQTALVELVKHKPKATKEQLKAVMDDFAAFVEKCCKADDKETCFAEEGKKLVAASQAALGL
Experimental: Standard physical chemical property determination methods were used. Please see the Supporting Information for details.
Protocol S4. Determination of compounds binding to human serum albumin (HSA).
The determination of compounds binding to human serum albumin (HSA) was carried out by retention time measurements using immobilized HSA HPLC columns obtained from Chiral Technologies Ltd, France. The column dimensions were 50x3 mm. The mobile phase was 50 mM ammonium acetate buffer pH 7.4 and HPLC grade 2-propanol. HPLC Method: flow rate 1.8 ml/min applying 2.5 min 2-propanol gradient up to 30%. From 2.5 min to 4.5 min the 2-propanol concentration in the mobile phase was kept at 30%. From 4.5 min to 4.6 min, the 2-propanol concentration was decreased to 0% and kept like that until the end of the gradient run which was 6 min. A calibration set of compounds was first analyzed for which plasma protein binding data were available: Warfarin, Nizatidine, Bromazepam, Carbamazepine, Budesonide, Nicardipine, Indomethacine, Piroxicam, Naproxen. The calculation of the HSA binding data expressed as %HSA was carried out as described previously.

in vitro [3] = settings: plasma, pH 7.4
in vitro [4] = type: in vitro ADME, mouse; settings: pH 7.4; for half-life: mouse microsomes, read-out: t1/2 in mouse microsomes; for Cli mouse: 0.5 µM
Experimental: as §1, §2, §3, §4, §5, §6, §7

HepG2 cells = settings: human, 48 h
in vitro [5] = settings: African green monkey

SMILES: CCCc1ccc(-n2c(-c3ccc(Cl)cc3)cc(CN3CCOCC3)c2C)cc1 [Compound 16, 2-Methyl-3-[(morpholin-4-yl)-methyl]-5-[4-(chloro)phenyl]-1-[4-(propyl)phenyl]-1H-pyrrole]
- chromatographic logD (physchem; pH 2): 1.72
- chromatographic logD (physchem; pH 7.4): 5.61
- chromatographic logD (physchem; pH 10.5): 5.86
- Cli human (in vitro [1]): <0.5 mL/min/g
- half-life (in vitro [1]): > 30 min
- MIC (M. tuberculosis H37Rv): 0.6 µM (≈ 0.245 µg/mL)
- HSA (%) binding [2]: 98.24%
- fraction unbound at 1 µM (in vitro [3]): < 0.001
- half-life (in vitro [4]): > 30 min
- Tox50, cytotoxicity in HepG2 cells (HepG2 cells): 15.4 µM
- melting point: 94 °C
- CC50 at 72 h (in vitro [5]): 60.1 µM

SMILES: Cc1c(CN2CCOCC2)cc(-c2ccc(Cl)cc2)n1-c1ccc(C(C)C)cc1 [Compound 17, 2-Methyl-3-[(morpholin-4-yl)-methyl]-5-[4-(chloro)phenyl]-1-[4-(i-propyl)phenyl]-1H-pyrrole]
- chromatographic logD (physchem; pH 2): 1.67
- chromatographic logD (physchem; pH 7.4): 5.43
- chromatographic logD (physchem; pH 10.5): 5.7
- Cli human (in vitro [1]): 0.5 ± 0 mL/min/g
- half-life (in vitro [1]): > 30 min
- MIC (M. tuberculosis H37Rv): 0.9 µM (≈ 0.368 µg/mL)
- HSA (%) binding [2]: 98.19%
- fraction unbound at 1 µM (in vitro [3]): < 0.001
- Cli mouse (in vitro [4]): 3.8 ± 0.1 mL/min/g
- half-life (in vitro [4]): 19.6 min
- Tox50, cytotoxicity in HepG2 cells (HepG2 cells): 14.7 µM
- melting point: 113 °C
- CC50 at 72 h (in vitro [5]): 175 µM

SMILES: COc1ccc(-n2c(-c3ccc(C)cc3)cc(CN3CCOCC3)c2C)cc1 [Compound 18, 2-Methyl-3-[(morpholin-4-yl)-methyl]-5-[4-(methyl)phenyl]-1-[4-(methoxy)phenyl]-1H-pyrrole]
- chromatographic logD (physchem; pH 2): 1.04
- chromatographic logD (physchem; pH 7.4): 3.6
- chromatographic logD (physchem; pH 10.5): 4.12
- Cli human (in vitro [1]): 1.26 mL/min/g
- half-life (in vitro [1]): 59.9 min
- MIC (M. tuberculosis H37Rv): 2 µM (≈ 0.753 µg/mL)
- HSA (%) binding [2]: 95.87%
- fraction unbound at 1 µM (in vitro [3]): 0.007
- Cli mouse (in vitro [4]): 8.92 mL/min/g
- half-life (in vitro [4]): < 5 min
- Tox50, cytotoxicity in HepG2 cells (HepG2 cells): 11.7 µM
- melting point: 128 °C
- CC50 at 72 h (in vitro [5]): 208 µM

SMILES: CCc1ccc(-c2cc(CN3CCOCC3)c(C)n2-c2ccc(OC)cc2)cc1 [Compound 19, 2-Methyl-3-[(morpholin-4-yl)-methyl]-5-[4-(ethyl)phenyl]-1-[4-(methoxy)phenyl]-1H-pyrrole]
- chromatographic logD (physchem; pH 2): 1.21
- chromatographic logD (physchem; pH 7.4): 3.99
- chromatographic logD (physchem; pH 10.5): 4.5
- Cli human (in vitro [1]): 1.71 mL/min/g
- half-life (in vitro [1]): > 30 min
- MIC (M. tuberculosis H37Rv): 0.3 µM (≈ 0.117 µg/mL)
- HSA (%) binding [2]: 96.65%
- fraction unbound at 1 µM (in vitro [3]): 0.003
- Cli mouse (in vitro [4]): 9.45 mL/min/g
- half-life (in vitro [4]): < 5 min
- Tox50, cytotoxicity in HepG2 cells (HepG2 cells): 5.7 µM
- melting point: 101 °C
- CC50 at 72 h (in vitro [5]): 30 µM

SMILES: CCCc1ccc(-c2cc(CN3CCOCC3)c(C)n2-c2ccc(OC)cc2)cc1 [Compound 20, 2-Methyl-3-[(morpholin-4-yl)-methyl]-5-[4-(propyl)phenyl]-1-[4-(methoxy)phenyl]-1H-pyrrole]
- chromatographic logD (physchem; pH 2): 1.4
- chromatographic logD (physchem; pH 7.4): 4.46
- chromatographic logD (physchem; pH 10.5): 4.93
- Cli human (in vitro [1]): 0.61 mL/min/g
- half-life (in vitro [1]): > 30 min
- MIC (M. tuberculosis H37Rv): 0.3 µM (≈ 0.121 µg/mL)
- HSA (%) binding [2]: 97.17%
- fraction unbound at 1 µM (in vitro [3]): < 0.001
- Cli mouse (in vitro [4]): 5.75 mL/min/g
- half-life (in vitro [4]): 10.9 min
- Tox50, cytotoxicity in HepG2 cells (HepG2 cells): 14.3 µM
- melting point: 107 °C
- CC50 at 72 h (in vitro [5]): > 256 µM

SMILES: COc1ccc(-n2c(-c3ccc(C(C)C)cc3)cc(CN3CCOCC3)c2C)cc1 [Compound 21, 2-Methyl-3-[(morpholin-4-yl)-methyl]-5-[4-(i-propyl)phenyl]-1-[4-(methoxy)phenyl]-1H-pyrrole]
- chromatographic logD (physchem; pH 2): 1.35
- chromatographic logD (physchem; pH 7.4): 4.32
- chromatographic logD (physchem; pH 10.5): 4.81
- Cli human (in vitro [1]): 2.15 mL/min/g
- half-life (in vitro [1]): > 30 min
- MIC (M. tuberculosis H37Rv): 0.3 µM (≈ 0.121 µg/mL)
- HSA (%) binding [2]: 97.07%
- fraction unbound at 1 µM (in vitro [3]): 0.001
- Cli mouse (in vitro [4]): 6.07 mL/min/g
- half-life (in vitro [4]): 10.7 min
- Tox50, cytotoxicity in HepG2 cells (HepG2 cells): 14.1 µM
- melting point: 109 °C
- CC50 at 72 h (in vitro [5]): 28.2 µM
